Results: ChEMBL document CHEMBL1201862, “PubChem BioAssay data set” (2004)
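96-well plates; 48 h exposure; 5 concentrations. Endpoints by linear interpolation between flanking doses. Not reached: highest tested concentration assigned. GI50 is the concentration that inhibits growth by half.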 Activity calls are given as the source filed them. Cut-off read from the data, not from the text of the source: active = GI50 up to about 1.1 µM and inactive = higher.

Columns and labels:
Experiment in all cases: inhibition of tumour cell growth, NCI panel, 48 h
[1] = system: SR
[2] = system: NCI/ADR-RES
[3] = system: HCT-116
[4] = system: MOLT-4
[5] = system: EKVX
[6] = system: NCI-H460
[7] = system: CCRF-CEM
[8] = system: SK-OV-3
[9] = system: SF-295
[10] = system: OVCAR-5
[11] = system: BT-549
[12] = system: DU-145
[13] = system: UACC-257
[14] = system: MCF7
[15] = system: MDA-N
[16] = system: HOP-92
[17] = system: NCI-H522

Measured: GI50

O=NN1CCCS1(=O)=O
inactive: [1] > 100 µM | [2] > 100 µM | [3] > 100 µM | [4] > 100 µM | [5] > 100 µM | [6] > 100 µM | [7] > 100 µM | [8] > 100 µM | [9] > 100 µM | [10] > 100 µM | [11] > 100 µM | [12] > 100 µM | [13] > 100 µM | [14] > 100 µM

CC1(C)[C@@H](Cn2cnc3c(O)nc(N)nc32)CC[C@@]1(C)CO
inactive: [15] > 100 µM | [2] > 100 µM | [3] > 100 µM | [4] 1.34 µM | [5] > 100 µM | [16] > 100 µM | [7] > 100 µM | [8] > 100 µM | [9] > 100 µM | [10] > 100 µM | [12] > 100 µM | [13] > 100 µM | [14] > 100 µM

CC(C)(C)OC(=O)NCCc1ccc(N)cc1
inactive: [15] > 100 µM | [1] 55.6 µM | [2] 32.4 µM | [3] > 100 µM | [4] 37.2 µM | [5] > 100 µM | [6] > 100 µM | [7] > 100 µM | [9] 49.2 µM | [17] > 100 µM | [12] > 100 µM | [13] 72.8 µM | [14] > 100 µM

CC(=O)N1NC(c2ccccc2)=CC(=O)/C1=C/C(=O)c1ccccc1
inactive: [15] 30.6 µM | [1] 20.7 µM | [2] 50.4 µM | [3] 62.2 µM | [4] 52.5 µM | [5] 49.2 µM | [16] 34.5 µM | [6] 71.1 µM | [7] 29.8 µM | [8] > 100 µM | [9] 58.2 µM | [10] > 100 µM | [17] 15.9 µM | [12] > 100 µM | [13] > 100 µM | [14] 43.7 µM

COC(=O)C(C(=O)C(=O)Nc1c(C)cccc1C(C)(C)C)c1nc2ccc(Cl)cc2nc1O (configuration not stated)
inactive: [1] > 100 µM | [2] > 100 µM | [3] > 100 µM | [4] > 100 µM | [5] 49.8 µM | [16] > 100 µM | [6] > 100 µM | [7] > 100 µM | [8] > 100 µM | [9] > 100 µM | [10] > 100 µM | [11] > 100 µM | [17] 94.2 µM | [13] > 100 µM | [14] > 100 µM

COC(=O)/C=C\c1ccc2c(c1)CC1(C2)Cc2ccc(/C=C/C(=O)OC)cc2C1 (configuration not stated)
inactive: [15] > 31.6 µM | [1] 5.57 µM | [2] > 31.6 µM | [3] 24.4 µM | [4] > 31.6 µM | [5] > 31.6 µM | [16] 28.4 µM | [6] > 100 µM | [7] > 31.6 µM | [8] > 31.6 µM | [9] 21.5 µM | [10] > 31.6 µM | [17] 17.4 µM | [12] > 100 µM | [13] > 31.6 µM | [14] 21.2 µM

CC1=C(C(=O)NCCc2ccccc2)CC(C(=O)NCCc2ccccc2)=C(C)N1
inactive: [2] > 100 µM | [3] 74.5 µM | [4] 74 µM | [5] 65.3 µM | [16] 49.3 µM | [6] 82.4 µM | [7] 27.8 µM | [8] > 100 µM | [9] > 100 µM | [10] > 100 µM | [11] > 100 µM | [17] 47.4 µM | [12] > 100 µM | [13] > 100 µM | [14] > 100 µM
